Experiments:
[1] = test system: psoriasis caused by imiquimod; assay: Epithelial thickness of back skin by H&E staining in imiquimod-induced psoriasis mice; type: in vivo, Balb/c mice; conditions: after treatment for a week, skin application, compared to the IMQ group
Source text: (§1) 6-week-old male Balb/c mice (Kangwon Life Science, Korea) were purchased and acclimated for a week, and psoriasis was induced using 5% imiquimod (Donga ST, Korea). FIG. 1 is a schematic experimental scheme of an animal model. Anti-psoriatic efficacy was investigated using a total of 20 animal models including 5 animals per experimental group.
(§2) In order to determine the effect of the extract of Dianthus superbus L. on psoriasis caused by imiquimod, the experimental animals of Section 2-1 were used. The following four experimental groups were constructed and five animals were randomly assigned to each group:
(§3) The experiment was conducted by inducing psoriasis with IMQ cream and then performing daily application in the amount shown in FIG. 2 to the experimental group and the DEX group. FIG. 3 is an image showing the treatment group for 7 days compared to the psoriasis-induced model as the animal experimental model.
After treatment for a week, the back skin tissue was removed from each animal, and then a paraffin block was prepared. The paraffin block was cut to 5 μm to prepare a slide sample, and then the change in the thickness of the skin tissue was measured through H&E staining.

[2] = test system: filaggrin, loricrin, keratin 1 and keratin 14; assay: Biomarkers for epithelial tissue damage in back skin by immunofluorescence in imiquimod-induced psoriasis mice; type: in vivo, Balb/c mice; conditions: after treatment for a week, versus IMQ group
Source text: as §1, §2, §3
After treatment for a week, back skin tissue was removed from each animal and a paraffin block was then prepared. A paraffin block was cut to 5 μm to prepare a slide sample, and then the change in biomarkers for epithelial tissue damage due to psoriasis was measured through immunofluorescence.

## C[C@@H]1C[C@H]2[C@@H]3CCC4=CC(=O)C=C[C@]4(C)[C@@]3(F)[C@@H](O)C[C@]2(C)[C@@]1(O)C(=O)CO [DEX, dexamethasone]
[1]
  thickness of the epithelial layer: decreased thickness
[2]
  expression level of filaggrin: increased
  expression level of keratin 1: increased
  expression level of keratin 14: increased
  expression level of loricrin: increased

From US11690887B2, “Composition for ameliorating psoriasis symptoms containing extract of Dianthus superbus L” (KOREA INSTITUTE OF SCIENCE AND TECHNOLOGY, priority 2020, dated 2023)
